Source: patent US7632918B2, “Semi-synthetic glycopeptides with antibiotic activity” (Novartis Vaccines and Diagnostics, Inc., priority 2005, dated 2009)
≈ marks a conversion by molar mass, not a printed value.

Columns and labels:
Experiment in all cases: MIC, broth microdilution in Meuller-Hinton broth (NCCLS)
559 E. faecalis (GSE) = type: cell-based, Enterococcus faecalis; details: glycopeptide-sensitive clinical isolate
Procedure: (§1) Antibacterial activity in vitro was investigated by broth microdilution method in Meuller-Hinton broth as recommended by NCCLS. All strains tested were clinical isolates either sensitive or resistant to natural glycopeptides. Results are reported in the tables as MIC (minimal inhibitory concentration) in μg/ml.
(§2) The glycopeptides were tested against a variety of strains, indicated below, including Staphylococus epidermidis, Staphylococus haemolyticus, glycopeptides-intermediate Staphylococus aureus (GISA), glocopeptide-sensitive Enterococcus faecalis (GSE), and glocopeptide-resistant Enterococcus faecalis (GRE). Results are shown in the table as minimum inhibitory concentration (MIC) in units of μg/ml: […]

560 E. faecalis (GRE) = type: cell-based, Enterococcus faecalis; details: glycopeptide-resistant clinical isolate
Procedure: as §1, §2

568 E. faecium (GSE) = type: cell-based; details: glycopeptide-sensitive clinical isolate
Procedure: as §1, §2

569 E. faecium (GRE) = type: cell-based; details: glycopeptide-resistant clinical isolate
Procedure: as §1, §2

3797 S. aureus (GISA) = type: cell-based, Staphylococus aureus; details: glycopeptides-intermediate clinical isolate
Procedure: as §1, §2

3798 S. aureus (GISA) = type: cell-based, Staphylococus aureus; details: glycopeptides-intermediate clinical isolate
Procedure: as §1, §2

533 S. epidermidis = type: cell-based, Staphylococus epidermidis; details: clinical isolate
Procedure: as §1, §2

602 S. haemolyticus = type: cell-based, Staphylococus haemolyticus; details: clinical isolate
Procedure: as §1, §2

| SMILES | MIC 559 E. faecalis (GSE) (559 E. faecalis (GSE)) | MIC 560 E. faecalis (GRE) (560 E. faecalis (GRE)) | MIC 568 E. faecium (GSE) (568 E. faecium (GSE)) | MIC 569 E. faecium (GRE) (569 E. faecium (GRE)) | MIC 3797 S. aureus (GISA) (3797 S. aureus (GISA)) | MIC 3798 S. aureus (GISA) (3798 S. aureus (GISA)) | MIC 533 S. epidermidis (533 S. epidermidis) | MIC 602 S. haemolyticus (602 S. haemolyticus) |
| --- | --- | --- | --- | --- | --- | --- | --- | --- |
| CNC(CC(C)C)C(=O)NC1C(=O)NC(CC(N)=O)C(=O)NC2C(=O)NC3C(=O)NC(C(=O)NC(C(=O)O)c4cc(O)cc(O)c4-c4cc3ccc4O)C(OC3CC(C)(N)C(O)C(C)O3)c3ccc(cc3)Oc3cc2cc(c3OC2OC(CO)C(O)C(O)C2OC2CC(C)(NC(=O)CNCc3ccc4c(c3)Cc3ccccc3-4)C(O)C(C)O2)Oc2ccc(cc2Cl)C1O (centres unmarked) [Compound 292] | 2 µg/mL (≈ 1.12 µM) | 32 µg/mL (≈ 17.8 µM) | 2 µg/mL (≈ 1.12 µM) | 32 µg/mL (≈ 17.8 µM) | 8 µg/mL (≈ 4.46 µM) | 8 µg/mL (≈ 4.46 µM) | 4 µg/mL (≈ 2.23 µM) | 4 µg/mL (≈ 2.23 µM) |
| CCCCc1ccc(CNCC(=O)NC2(C)CC(OC3C(Oc4c5cc6cc4Oc4ccc(cc4Cl)C(O)C(NC(=O)C(CC(C)C)NC)C(=O)NC(CC(N)=O)C(=O)NC6C(=O)NC4C(=O)NC(C(=O)NC(C(=O)O)c6cc(O)cc(O)c6-c6cc4ccc6O)C(OC4CC(C)(N)C(O)C(C)O4)c4ccc(cc4)O5)OC(CO)C(O)C3O)OC(C)C2O)cc1 (centres unmarked) [Compound 57, N′-p-BuBnHNCH2CO eremomycin] | 0.5 µg/mL (≈ 0.284 µM) | 4 µg/mL (≈ 2.27 µM) | 0.5 µg/mL (≈ 0.284 µM) | 4 µg/mL (≈ 2.27 µM) | 4 µg/mL (≈ 2.27 µM) | 4 µg/mL (≈ 2.27 µM) | 0.5 µg/mL (≈ 0.284 µM) | 2 µg/mL (≈ 1.14 µM) |
| CNC(CC(C)C)C(=O)NC1C(=O)NC(CC(N)=O)C(=O)NC2C(=O)NC3C(=O)NC(C(=O)NC(C(=O)NC4C5CC6CC(C5)CC4C6)c4cc(O)cc(O)c4-c4cc3ccc4O)C(OC3CC(C)(N)C(O)C(C)O3)c3ccc(cc3)Oc3cc2cc(c3OC2OC(CO)C(O)C(O)C2OC2CC(C)(N)C(O)C(C)O2)Oc2ccc(cc2Cl)C1O (centres unmarked) [Compound 213, 2-adamantanamino eremomycin] | 0.5 µg/mL (≈ 0.296 µM) | 8 µg/mL (≈ 4.73 µM) | 0.5 µg/mL (≈ 0.296 µM) | 4 µg/mL (≈ 2.37 µM) | 1 µg/mL (≈ 0.591 µM) | 2 µg/mL (≈ 1.18 µM) | 0.25 µg/mL (≈ 0.148 µM) | 0.25 µg/mL (≈ 0.148 µM) |
| CNC(CC(C)C)C(=O)NC1C(=O)NC(CC(N)=O)C(=O)NC2C(=O)NC3C(=O)NC(C(=O)NC(C(=O)O)c4cc(O)cc(O)c4-c4cc3ccc4O)C(OC3CC(C)(N)C(O)C(C)O3)c3ccc(cc3)Oc3cc2cc(c3OC2OC(CO)C(O)C(O)C2OC2CC(C)(NC(=O)[C@@H](N)Cc3ccccc3)C(O)C(C)O2)Oc2ccc(cc2Cl)C1O (some centres unmarked) [Compound 230] | 2 µg/mL (≈ 1.17 µM) | >64 µg/mL | 2 µg/mL (≈ 1.17 µM) | >64 µg/mL | >32 µg/mL | >32 µg/mL | 4 µg/mL (≈ 2.35 µM) | 4 µg/mL (≈ 2.35 µM) |
| CCCCc1ccc(CNCC(=O)NC2(C)CC(OC3C(Oc4c5cc6cc4Oc4ccc(cc4Cl)C(O)C(NC(=O)C(CC(C)C)NC)C(=O)NC(CC(N)=O)C(=O)NC6C(=O)NC4C(=O)NC(C(=O)NC(C(=O)NC)c6cc(O)cc(O)c6-c6cc4ccc6O)C(OC4CC(C)(N)C(O)C(C)O4)c4ccc(cc4)O5)OC(CO)C(O)C3O)OC(C)C2O)cc1 (centres unmarked) [Compound 77] | 2 µg/mL (≈ 1.13 µM) | 8 µg/mL (≈ 4.51 µM) | 2 µg/mL (≈ 1.13 µM) | 8 µg/mL (≈ 4.51 µM) | 2 µg/mL (≈ 1.13 µM) | 2 µg/mL (≈ 1.13 µM) | 1 µg/mL (≈ 0.564 µM) | 2 µg/mL (≈ 1.13 µM) |
| CNC(CC(C)C)C(=O)NC1C(=O)NC(CC(N)=O)C(=O)NC2C(=O)NC3C(=O)NC(C(=O)NC(C(=O)O)c4cc(O)cc(O)c4-c4cc3ccc4O)C(O)c3ccc(c(Cl)c3)Oc3cc2cc(c3OC2OC(CO)C(O)C(O)C2OC2CC(C)(NC(=O)CNCc3ccc(C(F)(F)F)cc3)C(O)C(C)O2)Oc2ccc(cc2Cl)C1O (centres unmarked) [Compound 290] | 2 µg/mL (≈ 1.2 µM) | >64 µg/mL | 4 µg/mL (≈ 2.4 µM) | >64 µg/mL | 4 µg/mL (≈ 2.4 µM) | 4 µg/mL (≈ 2.4 µM) | 4 µg/mL (≈ 2.4 µM) | 4 µg/mL (≈ 2.4 µM) |
| CCCCc1ccc(CNCC(=O)NC2(C)CC(OC3C(Oc4c5cc6cc4Oc4ccc(cc4Cl)C(O)C(NC(=O)C(CC(C)C)NC)C(=O)NC(CC(N)=O)C(=O)NC6C(=O)NC4C(=O)NC(C(=O)NC(C(=O)NC6C7CC8CC(C7)CC6C8)c6cc(O)cc(O)c6-c6cc4ccc6O)C(OC4CC(C)(N)C(O)C(C)O4)c4ccc(cc4)O5)OC(CO)C(O)C3O)OC(C)C2O)cc1 (centres unmarked) [Compound 263] | 8 µg/mL (≈ 4.22 µM) | 8 µg/mL (≈ 4.22 µM) | 8 µg/mL (≈ 4.22 µM) | 8 µg/mL (≈ 4.22 µM) | 16 µg/mL (≈ 8.45 µM) | 16 µg/mL (≈ 8.45 µM) | 8 µg/mL (≈ 4.22 µM) | 8 µg/mL (≈ 4.22 µM) |
| CNC(CC(C)C)C(=O)NC1C(=O)NC(CC(N)=O)C(=O)NC2C(=O)NC3C(=O)NC(C(=O)NC(C(=O)O)c4cc(O)cc(O)c4-c4cc3ccc4O)C(OC3CC(C)(N)C(O)C(C)O3)c3ccc(cc3)Oc3cc2cc(c3OC2OC(CO)C(O)C(O)C2OC2CC(C)(NC(=O)CNCc3cc4ccccc4c4ccccc34)C(O)C(C)O2)Oc2ccc(cc2Cl)C1O (centres unmarked) [Compound 287] | 2 µg/mL (≈ 1.11 µM) | >64 µg/mL | 2 µg/mL (≈ 1.11 µM) | >64 µg/mL | 16 µg/mL (≈ 8.86 µM) | 16 µg/mL (≈ 8.86 µM) | 2 µg/mL (≈ 1.11 µM) | 2 µg/mL (≈ 1.11 µM) |
| CCCCCCCCOc1ccc(CNC(CCCN)C(=O)NC2(C)CC(OC3C(Oc4c5cc6cc4Oc4ccc(cc4Cl)C(O)C4NC(=O)C(NC(=O)C6NC(=O)C(CC(N)=O)NC(=O)C(NC(=O)C(CC(C)C)NC)C(O)c6ccc(c(Cl)c6)O5)c5ccc(O)c(c5)-c5c(O)cc(O)cc5C(C(=O)O)NC4=O)OC(CO)C(O)C3O)OC(C)C2O)cc1 (centres unmarked) [Compound 241] | 1 µg/mL (≈ 0.561 µM) | 16 µg/mL (≈ 8.98 µM) | 1 µg/mL (≈ 0.561 µM) | 16 µg/mL (≈ 8.98 µM) | 2 µg/mL (≈ 1.12 µM) | 2 µg/mL (≈ 1.12 µM) | 0.5 µg/mL (≈ 0.281 µM) | 1 µg/mL (≈ 0.561 µM) |
| CNC(CC(C)C)C(=O)NC1C(=O)NC(CC(N)=O)C(=O)NC2C(=O)NC3C(=O)NC(C(=O)NC(C(=O)O)c4cc(O)cc(O)c4-c4cc3ccc4O)C(OC3CC(C)(N)C(O)C(C)O3)c3ccc(cc3)Oc3cc2cc(c3OC2OC(CO)C(O)C(O)C2OC2CC(C)(NC(=O)CNCc3c[nH]c4ccc(OCc5ccccc5)cc34)C(O)C(C)O2)Oc2ccc(cc2Cl)C1O (centres unmarked) [Compound 224] | 2 µg/mL (≈ 1.08 µM) | >64 µg/mL | 1 µg/mL (≈ 0.54 µM) | 16 µg/mL (≈ 8.65 µM) | 8 µg/mL (≈ 4.32 µM) | 8 µg/mL (≈ 4.32 µM) | 2 µg/mL (≈ 1.08 µM) | 2 µg/mL (≈ 1.08 µM) |
